Results published in patent US20120309676A1, “Lantibiotic Salts” (priority 2010, published 2012).
Counter-ions that a name gives are not always drawn.

Experiments:
Aqueous solubility = type: physicochemical; conditions: for pH of saturated solution: aqueous saturated solution
Excerpt: Solubility as employed herein is used generically to refer to a distribution of a compound of formula (I) in a solvent (for example water, saline or an aqueous isotonic solution such as glucose) such that the formulation/composition resulting therefrom is substantially free of visible aggregates and for example is substantially transparent when viewed by the naked eye. Such a formulation would therefore include a whole range of formats which are suitable for infusion and/or injection such as solutions, suspensions, colloids and the like. […]

[1] = tested on: Staphylococcus aureus methicillin resistant ATCC 33591; test: Mouse bacteraemia model, SC dosing; type: in vivo
Protocol: Groups of 6 male CD-1 (Crl.) derived mice weighing 24±2 g were used. Mice were inoculated intraperitoneally (IP) with an LD90-100 of Staphylococcus aureus methicillin resistant ATCC 33591 (1.1×10^7 CFU/mouse) in 0.5 mL of BHI broth containing 5% mucin. Example 1 and vancomycin were dissolved in 15% HPbetaCD/4.4% glucose/0.5 mM KH2PO4, pH 5.0 and doses of 1, 3, 5, 10 and 20 mg/Kg were administered subcutaneously (SC) to test animals at 0, 2 and 24 hour(s) after bacteria challenge. The dosing volume was 5 mL/Kg. Mortality was recorded once daily for 7 days (FIG. 1). The ED50 for each compound was determined by nonlinear regression.

[2] = tested on: Staphylococcus aureus methicillin resistant ATCC 33591; test: Mouse bacteraemia model, second experiment, IV dosing; type: in vivo; conditions: for number of deaths: after 7 days, groups of 6 mice
Protocol: In a second experiment Groups of 6 male CD-1 (Crl.) derived mice weighing 24±2 g were used. Mice were inoculated intraperitoneally (IP) with an LD90-100 of Staphylococcus aureus methicillin resistant ATCC 33591 (1.35×10^8 CFU/mouse) in 0.5 mL of BHI broth containing 5% mucin. Example 1 was dissolved in 5% dextrose/1.5 mM potassium phosphate, pH 5.0 and doses of 1, 3, 5 and 10 mg/Kg were administered intravenously (IV) to test animals at 1 and 13 hour(s) after bacteria challenge. The dosing volume was 5 mL/Kg. Mortality was recorded once daily for 7 days.

[3] = tested on: Methicillin Resistant Staphylococcus aureus (MRSA, ATCC 33591); test: Neutropaenic mouse thigh infection model; type: in vivo
Protocol: In vivo efficacy of compounds of the present invention in the treatment of bacterial tissue infections was evaluated using a neutropaenic mouse thigh model.
Groups of 6 male ICR mice weighing 24±2 g were used. Test animals were immunosuppressed by 2 intraperitoneal injections of cyclophosphamide, the first at 150 mg/Kg 4 days before infection (day-4) and the second at 100 mg/Kg 1 day before infection (day-1). On day 0, individual animals were inoculated intramuscularly (IM) into the right thigh of test animals with 1.15×10^8 CFU/mouse of Methicillin Resistant Staphylococcus aureus (MRSA, ATCC 33591) suspended in 100 μL of sterile PBS, pH 7.4. Vehicle and test substances were administered intravenously (IV) at a dose volume of 6 mL/Kg, 2 and 14 hours after thigh infection. Example 1 and vancomycin were dissolved in 15% hydroxypropyl-β-cyclodextrin/4.4% glucose/1.5 mM potassium phosphate buffer, pH 7.0 and administered at doses of 5, 10, 20, 30 and 40 mg/Kg. At 26 hours after inoculation, muscle of the right thigh of each test mouse was harvested. From an additional group with no treatment, muscle of the right thigh was harvested at 2 hours after inoculation for the basal CFU determination. The removed muscle tissues were then homogenized in 3-4 mL of PBS, pH 7.4 with a ceramic mortar. Homogenates of 0.1 mL were used for serial 10-fold dilutions and plated on Mueller Hinton broth in 1.5% Bacto agar for CFU determination. […] Results (mean cfu/g) are graphically represented in FIG. 2.

[4] = tested on: Methicillin Resistant Staphylococcus aureus (MRSA, ATCC 33591); test: Neutropaenic mouse thigh infection model, further experiment; type: in vivo; conditions: IV 2 and 14 h after infection, 2.5-50 mg/Kg, FIG. 3
Protocol: In a further experiment, groups of 6 male ICR mice weighing 24±2 g were used. Test animals were immunosuppressed by 2 intraperitoneal injections of cyclophosphamide, the first at 150 mg/Kg 4 days before infection (day-4) and the second at 100 mg/Kg 1 day before infection (day-1). On day 0, individual animals were inoculated intramuscularly (IM) into the right thigh of test animals with 1.5×10^5 CFU/mouse of Methicillin Resistant Staphylococcus aureus (MRSA, ATCC 33591) suspended in 100 μL of sterile PBS, pH 7.4. Vehicle and test substances were administered intravenously (IV) at a dose volume of 8 mL/Kg, 2 and 14 hours after thigh infection. Example 1 was dissolved in 5% dextrose/1 mM potassium phosphate, pH 5.0 and administered at doses of 2.5, 5, 10, 15, 25 and 50 mg/Kg. At 26 hours after inoculation, muscle of the right thigh of each test mouse was harvested. From an additional group with no treatment, muscle of the right thigh was harvested at 2 hours after inoculation for the basal CFU determination. The removed muscle tissues were then homogenized in 3-4 mL of PBS, pH 7.4 with a ceramic mortar. Homogenates of 0.1 mL were used for serial 10-fold dilutions and plated on Mueller Hinton broth in 1.5% Bacto agar for CFU determination.

[5] = In vivo plasma half-life in mice; conditions: male, mouse, 29.76 mg/kg; CD-1 mice, IV dose of Example 1 (9.3 mL/Kg of 3.2 mg/mL solution); Compound 1 in plasma by LC-MS
Protocol: The in vivo half-life of Compound 1 in mice was determined by measurement of its plasma concentrations at various time points following IV dosing. 18 male CD-1 mice aged 7-9 weeks were dosed IV with a 9.3 mL/Kg dose of a 3.2 mg/mL solution of Example 1 in 15% hydroxypropyl-β-cyclodextrin/4.4% glucose/1 mM potassium phosphate (pH=7.6). Plasma samples were obtained at 10, 20, 30, 60, 120 and 240 min post-dose, sampling from 3 animals at each time point. Concentrations of Compound 1 in plasma were determined by LC-MS quantification.

[6] = aqueous, * = calculations made from two determinations

CC[C@H](C)[C@@H]1NC(=O)[C@@H]2NC(=O)[C@H](CC(C)C)NC(=O)[C@H](NC(=O)[C@@H]3CSC[C@@H](N)C(=O)N[C@@H](CO)C(=O)NCC(=O)N[C@@H](Cc4c[nH]c5ccccc45)C(=O)N[C@@H](C(C)C)C(=O)N3)[C@H](C)SC[C@H](NC(=O)[C@H](CCC(=O)O)NC1=O)C(=O)NCC(=O)N[C@H]1C(=O)N[C@@H](CC(C)C)C(=O)N[C@@H](C(C)C)C(=O)N[C@@H](CS[C@H]2C)C(=O)N[C@@H](C)C(=O)N[C@H](C(=O)NCc2cc(Cl)cc(Cl)c2)CS[C@H]1C [triethanolamine salt]
pH of saturated solution (Aqueous solubility): 8.43
Solubility (Aqueous solubility; [6]): 1.04 mg/mL

CC[C@H](C)[C@@H]1NC(=O)[C@@H]2NC(=O)[C@H](CC(C)C)NC(=O)[C@H](NC(=O)[C@@H]3CSC[C@@H](N)C(=O)N[C@@H](CO)C(=O)NCC(=O)N[C@@H](Cc4c[nH]c5ccccc45)C(=O)N[C@@H](C(C)C)C(=O)N3)[C@H](C)SC[C@H](NC(=O)[C@H](CCC(=O)O)NC1=O)C(=O)NCC(=O)N[C@H]1C(=O)N[C@@H](CC(C)C)C(=O)N[C@@H](C(C)C)C(=O)N[C@@H](CS[C@H]2C)C(=O)N[C@@H](C)C(=O)N[C@H](C(=O)NCc2cc(Cl)cc(Cl)c2)CS[C@H]1C [tromethamine salt]
pH of saturated solution (Aqueous solubility): 8.53
Solubility (Aqueous solubility; [6]): 2.38 mg/mL

CN[C@H](CC(C)C)C(=O)N[C@H]1C(=O)N[C@@H](CC(N)=O)C(=O)N[C@H]2C(=O)N[C@H]3C(=O)N[C@H](C(=O)N[C@H](C(=O)O)c4cc(O)cc(O)c4-c4cc3ccc4O)[C@H](O)c3ccc(c(Cl)c3)Oc3cc2cc(c3O[C@@H]2O[C@H](CO)[C@@H](O)[C@H](O)[C@H]2O[C@H]2C[C@](C)(N)[C@H](O)[C@H](C)O2)Oc2ccc(cc2Cl)[C@H]1O [vancomycin, reference compound]
antimicrobial effect against S. aureus (MRSA) in mice ([1]; 3, 5, 10 and 20 mg/Kg×3, SC): significant antimicrobial effect
ED50 ([1]; Staphylococcus aureus, ATCC33591, CD-1 mice, SC at 0, 2 and 24 h after challenge, mortality over 7 days, nonlinear regression, read-out: estimated ED50): 3 mg/kg
number of deaths ([2]; 1 mg/kg IV at 1 and 13 h after challenge): 5
number of deaths ([2]; 3 mg/kg IV at 1 and 13 h after challenge): 3
number of deaths ([2]; 5 mg/kg IV at 1 and 13 h after challenge): 1
number of deaths ([2]; 10 mg/kg IV at 1 and 13 h after challenge): 0
survival of mice after 7 days ([2]; 1, 3, 5 and 10 mg/kg): dose-dependent incease in survival
antimicrobial effect ([3]; IV at 5, 10, 20, 30 and 40 mg/Kg×2, 2 and 14 h after thigh infection, harvest at 26 h): significant antimicrobial effect
reductions of CFU/g ([3]; at 30 mg/kg and above, IV ×2, thigh muscle at 26 h): > 100 fold
bacterial counts in the thigh tissue [4]: dose dependent reduction

CCC(C)[C@@H]1NC(=O)[C@@H]2NC(=O)[C@H](CC(C)C)NC(=O)[C@H](NC(=O)[C@H]3CSC[C@H](N)C(=O)N[C@@H](CO)C(=O)NCC(=O)N[C@@H](Cc4c[nH]c5ccccc45)C(=O)N[C@@H](C(C)C)C(=O)N3)[C@H](C)SC[C@H](NC(=O)[C@H](CCC(=O)O)NC1=O)C(=O)NCC(=O)N[C@@H]1C(=O)N[C@@H](CC(C)C)C(=O)N[C@@H](C(C)C)C(=O)N[C@@H](CS[C@H]2C)C(=O)N[C@@H](C)C(=O)N[C@H](C(=O)NCc2cc(Cl)cc(Cl)c2)CS[C@H]1C (stereo partly drawn) [Compound 1, Deoxyactagardine B (3,5-dichlorobenzylamine) monocarboxamide]
half-life [5]: ~2 h

CC[C@H](C)[C@@H]1NC(=O)[C@@H]2NC(=O)[C@H](CC(C)C)NC(=O)[C@H](NC(=O)[C@@H]3CSC[C@@H](N)C(=O)N[C@@H](CO)C(=O)NCC(=O)N[C@@H](Cc4c[nH]c5ccccc45)C(=O)N[C@@H](C(C)C)C(=O)N3)[C@H](C)SC[C@H](NC(=O)[C@H](CCC(=O)O)NC1=O)C(=O)NCC(=O)N[C@H]1C(=O)N[C@@H](CC(C)C)C(=O)N[C@@H](C(C)C)C(=O)N[C@@H](CS[C@H]2C)C(=O)N[C@@H](C)C(=O)N[C@H](C(=O)NCc2cc(Cl)cc(Cl)c2)CS[C@H]1C [diethanolamine salt]
pH of saturated solution (Aqueous solubility): 8.78
Solubility (Aqueous solubility; [6]): 6.94* mg/mL
Solubility (Aqueous solubility; salts of compound 1, listed as diethanolamine salt of compound 1): more than 5 mg/mL

CC[C@H](C)[C@@H]1NC(=O)[C@@H]2NC(=O)[C@H](CC(C)C)NC(=O)[C@H](NC(=O)[C@@H]3CSC[C@@H](N)C(=O)N[C@@H](CO)C(=O)NCC(=O)N[C@@H](Cc4c[nH]c5ccccc45)C(=O)N[C@@H](C(C)C)C(=O)N3)[C@H](C)SC[C@H](NC(=O)[C@H](CCC(=O)O)NC1=O)C(=O)NCC(=O)N[C@H]1C(=O)N[C@@H](CC(C)C)C(=O)N[C@@H](C(C)C)C(=O)N[C@@H](CS[C@H]2C)C(=O)N[C@@H](C)C(=O)N[C@H](C(=O)NCc2cc(Cl)cc(Cl)c2)CS[C@H]1C [ethanolamine salt]
pH of saturated solution (Aqueous solubility): 8.74
Solubility (Aqueous solubility; [6]): 10.5* mg/mL
Solubility (Aqueous solubility; salts of compound 1, listed as ethanolamine salt of compound 1): more than 10 mg/mL

CC[C@H](C)[C@@H]1NC(=O)[C@@H]2NC(=O)[C@H](CC(C)C)NC(=O)[C@H](NC(=O)[C@@H]3CSC[C@@H](N)C(=O)N[C@@H](CO)C(=O)NCC(=O)N[C@@H](Cc4c[nH]c5ccccc45)C(=O)N[C@@H](C(C)C)C(=O)N3)[C@H](C)SC[C@H](NC(=O)[C@H](CCC(=O)O)NC1=O)C(=O)NCC(=O)N[C@H]1C(=O)N[C@@H](CC(C)C)C(=O)N[C@@H](C(C)C)C(=O)N[C@@H](CS[C@H]2C)C(=O)N[C@@H](C)C(=O)N[C@H](C(=O)NCc2cc(Cl)cc(Cl)c2)CS[C@H]1C [N-ethyl-D-glucamine salt]
pH of saturated solution (Aqueous solubility): 8.43
Solubility (Aqueous solubility; [6]): 11.16* mg/mL
Solubility (Aqueous solubility; salts of compound 1, listed as N-ethyl glucamine salt of compound 1): more than 10 mg/mL
